From the NIST ThermoML archive (doi:10.1021/je020125e)

Details: 101.33 kPa, Liquid, Hot wire method

CCCCC(C)C [2-methylhexane]
Details | thermal conductivity [W/m/K] | thermal diffusivity [m2/s]
256.24 K | 0.1227 | –
256.67 K | 0.1226 | –
257.02 K | 0.1224 | –
257.46 K | – | 8.41e-08
258.65 K | – | 8.33e-08
259.64 K | – | 8.28e-08
275.56 K | 0.1172 | –
276 K | 0.1168 | –
276.39 K | 0.1167 | –
276.83 K | – | 8e-08
278.06 K | – | 7.86e-08
279.12 K | – | 7.85e-08
296.46 K | 0.1109 | –
296.93 K | 0.1106 | –
297.4 K | 0.1105 | –
297.8 K | – | 7.5e-08
299.08 K | – | 7.43e-08
300.34 K | – | 7.38e-08
317.4 K | 0.1049 | –
317.92 K | 0.1047 | –
318.35 K | 0.1045 | –
318.77 K | – | 7.02e-08
320.16 K | – | 6.96e-08
321.33 K | – | 6.94e-08
337.1 K | 0.09956 | –
337.65 K | 0.0992 | –
338.11 K | 0.09905 | –
338.49 K | – | 6.63e-08
339.91 K | – | 6.52e-08
341.12 K | – | 6.49e-08

CC(C)C(C)C(C)C [2,3,4-trimethylpentane]
Details | thermal conductivity [W/m/K] | thermal diffusivity [m2/s]
259.06 K | 0.1127 | –
259.29 K | 0.1126 | –
259.54 K | 0.1125 | –
259.87 K | – | 7.32e-08
260.45 K | – | 7.32e-08
261.06 K | – | 7.31e-08
277.95 K | 0.1083 | –
278.19 K | 0.1082 | –
278.44 K | 0.108 | –
278.74 K | – | 6.91e-08
279.35 K | – | 6.9e-08
279.93 K | – | 6.87e-08
297.33 K | 0.1036 | –
297.58 K | 0.1035 | –
297.84 K | 0.1033 | –
298.16 K | – | 6.57e-08
298.78 K | – | 6.56e-08
299.4 K | – | 6.54e-08
315.53 K | 0.09948 | –
315.77 K | 0.09926 | –
316.03 K | 0.09916 | –
316.35 K | – | 6.19e-08
316.91 K | – | 6.12e-08
317.54 K | – | 6.12e-08
331.87 K | 0.0958 | –
332.13 K | 0.09569 | –
332.39 K | 0.09551 | –
332.69 K | – | 5.9e-08
333.32 K | – | 5.89e-08
333.91 K | – | 5.84e-08

CC(C)C(C)(C)C [2,2,3-trimethylbutane]
Details | thermal conductivity [W/m/K] | thermal diffusivity [m2/s]
257.27 K | 0.1051 | –
257.53 K | 0.105 | –
257.81 K | 0.1049 | –
258.21 K | – | 7.28e-08
258.88 K | – | 7.27e-08
259.58 K | – | 7.26e-08
277.62 K | 0.1001 | –
277.9 K | 0.0999 | –
278.17 K | 0.0998 | –
278.57 K | – | 6.81e-08
279.26 K | – | 6.79e-08
279.93 K | – | 6.77e-08
296.29 K | 0.09516 | –
296.58 K | 0.09508 | –
296.87 K | 0.09497 | –
297.2 K | – | 6.29e-08
297.91 K | – | 6.32e-08
298.61 K | – | 6.3e-08
313.91 K | 0.09108 | –
314.21 K | 0.09098 | –
314.52 K | 0.09085 | –
314.85 K | – | 6e-08
315.57 K | – | 6e-08
316.3 K | – | 5.98e-08
331.18 K | 0.08718 | –
331.48 K | 0.08706 | –
331.79 K | 0.0869 | –
332.15 K | – | 5.72e-08
332.87 K | – | 5.7e-08
333.59 K | – | 5.66e-08

CCC(C)(C)C [2,2-dimethylbutane]
Details | thermal conductivity [W/m/K] | thermal diffusivity [m2/s]
257.48 K | 0.1055 | –
257.84 K | 0.1053 | –
258.3 K | 0.1051 | –
258.74 K | – | 7.54e-08
259.62 K | – | 7.49e-08
260.73 K | – | 7.46e-08
271.49 K | 0.1011 | –
271.84 K | 0.101 | –
272.32 K | 0.1008 | –
272.79 K | – | 7.16e-08
273.65 K | – | 7.14e-08
274.78 K | – | 7.08e-08
279.86 K | 0.09854 | –
280.24 K | 0.09842 | –
280.73 K | 0.09822 | –
281.17 K | – | 6.94e-08
282.06 K | – | 6.92e-08
283.23 K | – | 6.85e-08
297.98 K | 0.09321 | –
298.42 K | 0.09307 | –
298.91 K | 0.09289 | –
299.31 K | – | 6.48e-08
300.31 K | – | 6.46e-08
301.44 K | – | 6.41e-08
319.35 K | 0.08745 | –
319.75 K | 0.08729 | –
320.28 K | 0.08709 | –
320.72 K | – | 6.03e-08
321.62 K | – | 5.99e-08
322.83 K | – | 5.95e-08
